Results taken from patent US5081113A, “Novel 3-keto-steroids” (Roussel Uclaf, priority 1989, dated 1992).
Where two headings read alike, the source gives them in different places.

What was measured:
[1] = tested on: lipid peroxidation (MDA formation) in rat liver microsomes; details: liver microsomes of phenobarbital-pretreated rats, NADPH/carbon tetrachloride, pH 7.4, 15 minutes at 37° C.
[2] = tested on: lipid peroxidation (MDA formation) in rat liver microsomes; test: Test of formation of malondialdehyde (MDA), non-enzymatic lipid peroxidation triggered by ferrous sulfate in rat liver microsomes; assay type: biochemical, S-D rats; details: ferrous sulfate/ascorbate, pH 7.4, 15 minutes at 37° C.
Procedure: The reaction was stopped by adding 2 ml of a 1M solution of trichloroacetic acid in 0.25M hydrochloric acid containing 0.4% of thiobarbituric acid. The mixture was heated to 85° C. for 25 minutes, cooled and centrifuged for 15 minutes at 3500 rpm, and the OD of the supernatant fraction was then read at 535 nm. The reaction blanks in the absence of Fe^++ were performed at the same time. The percentage inhibition was calculated as above.

[3] = tested on: lipid peroxidation (MDA formation) in brain homogenates; test: Test of formation of malondialdehyde (MDA), non-enzymatic lipid peroxidation triggered by ferrous sulfate in brain homogenates; assay type: biochemical, S-D rats; details: brain homogenate, 60 minutes at 37° C.
Procedure: 1.1 MDA formation was measured on 10-fold diluted (V/V) homogenates of brains of S-D rats (200 g) prepared in Krebs buffer pH 7.4 under the conditions described in J. Biol. Chem., Vol. 262 (1987), p. 10438 to 10440. 1 ml of homogenate was incubated for 60 minutes at 37° C. in the presence of 25 microliters of ethanol or water or a mixture of the two depending on the product containing or not containing the test product, after the addition of 25 microliters of ferrous sulfate solution prepared immediately before use in water outgassed with argon (200 micromoles final). 0.25 ml of incubated mixture were withdrawn and 1.5 ml of 1% strength phosphoric acid, 0.25 ml of a solution containing 200 micromoles of deferoxamine (Desferal^.phi., Ciba Geigy) in water, 10 microliters of butylated hydroxy-toluene (BHT) at a concentration of 8.7 mg/ml in ethanol and 0.5 ml of thiobarbituric acid (TBA) at a concentration of 0.6% in water were added. The mixture was heated to 100° C. for 45 minutes and cooled. 4 ml of n-butanol were added and the mixture was centrifuged for 15 minutes at 4000 rpm and the OD of the supernatant fraction was then read at 535 nm. The reaction blanks in the absence of Fe^++ were incubated under the same conditions.

Row | Compound | percentage inhibition (MDA formation) ([1]; 1*10^-5 M) [%] | percentage inhibition (MDA formation) ([1]; 1*10^-6 M) [%] | percentage inhibition (MDA formation) ([1]; 5*10^-6 M) [%] | percentage inhibition (MDA formation) ([2]; 1*10^-5 M) [%] | percentage inhibition (MDA formation) ([2]; 1*10^-6 M) [%] | percentage inhibition (MDA formation) ([2]; 5*10^-5 M) [%] | percentage inhibition (MDA formation) ([2]; 5*10^-6 M) [%] | percentage inhibition (MDA formation) ([3]; 1 * 10^-4 M) [%] | percentage inhibition (MDA formation) ([3]; 1 * 10^-5 M) [%] | percentage inhibition (MDA formation) ([3]; 5 * 10^-4 M) [%]
1 | CC1=C[C@@H]2[C@H]([C@@H](O)C[C@@]3(C)[C@H]2CC[C@@]3(O)C#CCN2CCN(c3cc(N4CCCC4)nc(N4CCCC4)n3)CC2)[C@@]2(C)C=CC(=O)C=C12 [Example 2] | 80 ± 1 | 22 ± 1.5 | 61 ± 1.5 | 11.3 ± 2 | 0 ± 2 | 85 ± 1.5 | 0 ± 3 | 26.6 ± 3.9 | 28.0 ± 4.1 | 53.1 ± 7.8
2 | C[C@]12CCC(=O)C=C1C=C[C@@H]1[C@@H]2[C@@H](O)C[C@@]2(C)[C@H]1CC[C@@]2(O)C#CCN1CCN(c2cc(N3CCCC3)nc(N3CCCC3)n2)CC1 [Example 1, 17α-[3-{4-[(2,6-bis(1-pyrrolidinyl)-4-pyrimidinyl]-1-piperazinyl}-1-propynyl]-Δ^4,6-androstadien-11β,17β-diol-3-one methanesulfonate] | 86 ± 2 | 16 ± 1 | 75 ± 4 | 46 ± 3 | 0 ± 18 | 97.5 ± 0.5 | 19.5 ± 6 | 9.8 ± 11.2 | -10.6 ± 9.0 | 60.8 ± 3.0
3 | CCN(CC)c1ccc(N(CC)CC)c(N2CCN(CC#C[C@]3(O)CC[C@H]4[C@@H]5C=C(C)C6=CC(=O)C=C[C@]6(C)[C@H]5[C@@H](O)C[C@@]43C)CC2)n1 [Example 4, 17α-[3-{4-[3,6-bis(diethylamino)-2-pyridyl]-1-piperazinyl}-1-propynyl]-6-methyl-Δ^1,4,6-androstatrien-11β,17β-diol-3-one] | 91 ± 2 | 49 ± 2 | 85 | 100 | 51 ± 3 | – | 99.5 | 51.0 ± 12.4 | 48.5 ± 13.1 | 65.4 ± 10.1
4 | CCN(CC)c1ccc(N2CCN(CC#C[C@]3(O)CC[C@H]4[C@@H]5C=C(C)C6=CC(=O)C=C[C@]6(C)[C@H]5[C@@H](O)C[C@@]43C)CC2)nc1N(CC)CC [Example 3, 17α-[3-{4-[5,6-bis(diethylamino)-2-pyridyl]-1-piperazinyl}-1-propynyl]-6-methyl-Δ^1,4,6-androstatrien-11β,17β-diol-3-one] | 93 | 48 ± 2 | 89 ± 2 | 95.5 | 55 ± 9 | – | 99.5 | 62.9 ± 4.5 | 51.3 ± 13.7 | 64.2 ± 10
